Experimental data: US7893090B2, “N-aroyl cyclic amine derivatives as orexin receptor antagonists” (SmithKline Beecham Limited, priority 2001, dated 2011)

What was measured:
[1] = central administration, freely-feeding rats, 4 hour time period; cited from earlier work
[2] = Rat sleep/EEG studies after central administration; format: in vivo; conditions: central administration at the onset of the normal sleep period; at the expense of paradoxical sleep and slow wave sleep 2
From the text: Therefore antagonists of its receptor may be useful in the treatment of sleep disorders including insomnia.

## orexin-A: ligand for the orexin-1 receptor, an agonist of the orexin receptors; 33-residue peptide, SEQ ID NO:1 (EPLPDCCRQKTCSCRLYELLHGAGNHAAGILTLNH; Homo sapien)
[1]
  increase in food intake over control rats receiving vehicle: approximately four-fold
[2]
  arousal in rat sleep/EEG: dose-related increase in arousal
